Read-outs that look alike come from different tables or passages of the source. Starred links: 1 amine or outer side, 2 acyl side, 3 side chain; linkers in the order of their positions; H or OH if unused. Positions of bridges follow the written chain, without caps; N, C: chain ends. Non-standard residues stand in square brackets, D forms with d. Residues, ends and D or L forms follow the SMILES beside them. Trp(7-Me) = Cc1cccc2c(C[C@H](N)C(=O)O)c[nH]c12; Abu(4-yl) = O=C([C@H](CC[*:3])N[*:1])[*:2]; 2Nal = N[C@@H](Cc1ccc2ccccc2c1)C(=O)O; AEF = NCCOc1ccc(C[C@H](N)C(=O)O)cc1; αMeF = C[C@](N)(Cc1ccccc1)C(=O)O; Cit = NC(=O)NCCC[C@H](N)C(=O)O; Pen = CC(C)(S)[C@H](N)C(=O)O; αMeK = C[C@](N)(CCCCN)C(=O)O; Aib = CC(C)(N)C(=O)O
What was measured:
Experiment in all cases: cell-based
IL-23R [1] = target: T1, IL-23R (Homo sapiens, UniProt Q5VWK5); conditions: PBMC pSTAT3 IC50 (nM), PBMCs from healthy donors, IL-23 5 ng/mL, 30 minutes, phosphorylated STAT3
Procedure: Cryopreserved peripheral blood mononuclear cells (PBMCs) from healthy donors were thawed and washed twice in ImmunoCult-XF T cell expansion medium (XF-TCEM) supplemented with CTL anti-aggregate wash. […] The cells were stimulated with cytokine for 30 minutes at 37° C. in 5% CO2, transferred onto ice for 10 minutes, and lysed. Cell lysates were stored at −80° C. until phosphorylated STAT3 was measured using the phospho-STAT panel kit (Meso Scale Discovery, K15202D).

IL-23R [2] = target: T1, IL-23R
Procedure: After 7 days, cells were centrifuged, and resuspended in complete media at IE6 cells/mL. […] After 20 to 24 hours, IFNγ in the supernatant was quantified using Quantikine ELISA (RnD, Cat #DIF50).

IL-23R [3] = target: T1, IL-23R; remark: listed apart in the source
Source text: DB Cells IL23R pSTAT3 Cell Assay
Changes in phospho-STAT3 levels in the cell lysates were detected using the Cisbio HTRF pSTAT3 Cellular Assay Kit, according to manufacturer's Two Plate Assay protocol.

T1 sequence (Q5VWK5 24-629): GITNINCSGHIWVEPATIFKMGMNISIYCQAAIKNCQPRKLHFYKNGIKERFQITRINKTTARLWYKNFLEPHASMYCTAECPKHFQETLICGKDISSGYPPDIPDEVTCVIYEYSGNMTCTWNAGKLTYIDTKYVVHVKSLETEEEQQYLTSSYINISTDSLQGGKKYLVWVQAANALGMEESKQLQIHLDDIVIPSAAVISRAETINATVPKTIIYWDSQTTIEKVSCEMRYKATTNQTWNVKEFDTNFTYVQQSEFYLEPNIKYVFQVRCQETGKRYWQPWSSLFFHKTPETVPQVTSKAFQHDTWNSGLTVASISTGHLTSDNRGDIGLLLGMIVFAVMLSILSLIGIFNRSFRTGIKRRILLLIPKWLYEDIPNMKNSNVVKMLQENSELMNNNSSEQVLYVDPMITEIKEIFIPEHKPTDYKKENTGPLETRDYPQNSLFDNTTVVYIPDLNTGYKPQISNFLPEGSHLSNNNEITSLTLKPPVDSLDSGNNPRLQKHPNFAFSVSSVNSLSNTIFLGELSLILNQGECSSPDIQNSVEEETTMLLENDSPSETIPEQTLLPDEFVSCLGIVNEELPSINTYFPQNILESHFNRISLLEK

## CCC(=O)N[C@H](CCCNC(=N)N)C(=O)N[C@@H]1C(=O)N[C@@H](CCC(N)=O)C(=O)N[C@@H]([C@@H](C)O)C(=O)N[C@@H](Cc2c[nH]c3ccccc23)C(=O)N[C@@H](CCC(N)=O)C(=O)N[C@H](C(=O)N[C@@H](Cc2ccc(OCCN)cc2)C(=O)N[C@@H](Cc2ccc3ccccc3c2)C(=O)NC2(C(=O)N[C@@H](CCCCNC(=O)C(F)(F)F)C(=O)N[C@@H](CC(N)=O)C(=O)NC3(C(N)=O)CCOCC3)CCOCC2)C(C)(C)SSC1(C)C [Compound 6, [Propionic_acid]-[(D)Arg]-[Pen]-Q-T-W-Q-[Pen]-Phe[4-(2-aminoethoxy)]-[2-Nal]-[THP]-[Lys(COCF3)]-N-[THP]-NH2]
IL-23R [1]
  IC50: 8.6 nM
IL-23R [2]
  IC50: 16.8 nM

## CC(=O)NCCCC[C@@H]1NC(=O)[C@H](Cc2c[nH]c3c(C)cccc23)NC(=O)[C@@H](CC(=O)O)NC(=O)[C@H](CC(N)=O)NC(=O)[C@@H](NC(C)=O)C(C)(C)SSC(C)(C)[C@@H](C(=O)N[C@@H](Cc2ccc(OCCN)cc2)C(=O)N[C@@H](Cc2ccc3ccccc3c2)C(=O)N[C@@](C)(CCCCN)C(=O)N[C@@H](CCCCNC(C)=O)C(=O)N[C@@H](CC(N)=O)C(=O)N[C@H](CC(C)C)C(N)=O)NC1=O [Compound 74, Ac-[Pen]-N-[(D)Asp]-[W(7-Me)]-[Lys(Ac)]-[Pen]-Phe[4-(2-aminoethoxy)]-[2-Nal]-[a-MeLys]-[Lys(Ac)]-N-[(D)Leu]-NH2] (Ac-[Pen]N[dD][Trp(7-Me)]K(Ac)[Pen][AEF][2Nal][αMeK]K(Ac)N[dL]-NH2; disulfide 1-6)
IL-23R [3]
  IC50: 73.1 nM

## CC(=O)NCCCC[C@@H]1NC(=O)[C@H](Cc2c[nH]c3c(C)cccc23)NC(=O)[C@H]([C@@H](C)O)NC(=O)[C@H](CC(N)=O)NC(=O)[C@@H](NC(C)=O)C(C)(C)SSC(C)(C)[C@@H](C(=O)N[C@@H](Cc2ccc(OCCN)cc2)C(=O)N[C@@H](Cc2ccc3ccccc3c2)C(=O)N[C@@](C)(CCCCN)C(=O)N[C@@H](CCCCNC(C)=O)C(=O)N[C@@H](CC(N)=O)C(=O)N[C@@H](Cc2ccc(N)cc2)C(N)=O)NC1=O [Compound 112, Ac-[Pen]-N-T-[W(7-Me)]-[Lys(Ac)]-[Pen]-Phe[4-(2-aminoethoxy)]-[2-Nal]-[a-MeLys]-[Lys(Ac)]-N-Phe[4-NH2]-NH2]
IL-23R [3]
  IC50: 2.09 nM

## CC(=O)NCCCC[C@@H]1NC(=O)[C@H](Cc2c[nH]c3c(C)cccc23)NC(=O)[C@H]([C@@H](C)O)NC(=O)[C@H](CCC(N)=O)NC(=O)[C@@H](NC(=O)[C@@H](CCCNC(=N)N)NC(C)=O)CCSC[C@@H](C(=O)N[C@@H](Cc2ccc(OCCN)cc2)C(=O)N[C@@H](Cc2ccc3ccccc3c2)C(=O)N[C@@](C)(CCCCN)C(=O)N[C@@H](CCCCNC(C)=O)C(=O)N[C@@H](CC(N)=O)C(=O)N[C@@](C)(Cc2ccccc2)C(N)=O)NC1=O [Compound 201, Ac-[(D)Arg]-[Abu]-Q-T-[W(7-Me)]-[Lys(Ac)]-[Cys]-Phe[4-(2-aminoethoxy)]-[2-Nal]-[a-MeLys]-[Lys(Ac)]-N-[a-MePhe]-NH2] (Ac-[dR][Abu(4-yl)]QT[Trp(7-Me)]K(Ac)C[AEF][2Nal][αMeK]K(Ac)N[αMeF]-NH2; thioether 2-7)
IL-23R [3]
  IC50: 12.7 nM

## CC(=O)NCCCC[C@H](NC(=O)[C@](C)(CCCCN)NC(=O)[C@H](Cc1ccc2ccccc2c1)NC(=O)[C@H](Cc1ccc(OCCN)cc1)NC(=O)[C@H]1NC(=O)[C@H](CCCNC(N)=O)NC(=O)[C@H](Cc2c[nH]c3c(C)cccc23)NC(=O)[C@H]([C@@H](C)O)NC(=O)[C@H](CC(N)=O)NC(=O)[C@@H](NC(C)=O)C(C)(C)SSC1(C)C)C(=O)N[C@@H](CC(N)=O)C(=O)NC(C)(C)C(=O)N[C@H](Cc1ccc(O)cc1)C(N)=O [Compound 202, Ac-[Pen]-N-T-[W(7-Me)]-[Cit]-[Pen]-Phe[4-(2-aminoethoxy)]-[2-Nal]-[a-MeLys]-[Lys(Ac)]-N-[Aib]-[(D)Tyr]-NH2] (Ac-[Pen]NT[Trp(7-Me)][Cit][Pen][AEF][2Nal][αMeK]K(Ac)N[Aib][dY]-NH2; disulfide 1-6)
IL-23R [3]
  IC50: 0.637 nM

From patent US20240383954A1, “PEPTIDE INHIBITORS OF INTERLEUKIN-23 RECEPTOR AND THEIR USE TO TREAT INFLAMMATORY DISEASES” (Janssen Biotech, Inc., priority 2020, published 2024)
